{"source": "ChEMBL document CHEMBL5543126", "about": "“Combinatorial Ubiquitination REal-time PROteolysis (CURE-PROs): A Modular Platform for Generating Reversible, Self-Assembling Bifunctional Targeted Degraders” (J Med Chem, 2024)", "key": {"[1]": {"biological_target": "von Hippel-Lindau disease tumor suppressor/Bromodomain-containing protein 4 (Homo sapiens, UniProt O60885+P40337)", "sequence (P40337 whole entry, looked up, other chains not shown)": "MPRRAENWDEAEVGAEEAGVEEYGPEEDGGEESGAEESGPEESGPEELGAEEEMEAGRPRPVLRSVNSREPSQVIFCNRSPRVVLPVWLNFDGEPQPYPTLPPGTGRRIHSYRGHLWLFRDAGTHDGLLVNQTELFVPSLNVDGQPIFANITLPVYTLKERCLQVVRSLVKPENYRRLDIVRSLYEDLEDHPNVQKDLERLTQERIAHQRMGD", "experiment": "PROTAC activity at BRD4/VHL in human MCF7 cells assessed as reduction in BRD4 level incubated for 24 hrs in presence of VHL based ligand (2S,4R)-1-((S)-2-(3,4-dihydroxybenzamido)-3,3-dimethylbutanoyl)-4-hydroxy-N-(4-(4-methylthiazol-5-yl)benzyl)pyrrolidine-2-carboxamide by Western blot based Combinatorial Ubiquitination Real-time PROteolysis analysis", "format": "cell-based"}, "[2]": {"biological_target": "T1, Protein cereblon/Bromodomain-containing protein 3 (Homo sapiens) (UniProt Q15059+Q96SW2)", "T1 sequence (Q15059 2-726 limits assumed)": "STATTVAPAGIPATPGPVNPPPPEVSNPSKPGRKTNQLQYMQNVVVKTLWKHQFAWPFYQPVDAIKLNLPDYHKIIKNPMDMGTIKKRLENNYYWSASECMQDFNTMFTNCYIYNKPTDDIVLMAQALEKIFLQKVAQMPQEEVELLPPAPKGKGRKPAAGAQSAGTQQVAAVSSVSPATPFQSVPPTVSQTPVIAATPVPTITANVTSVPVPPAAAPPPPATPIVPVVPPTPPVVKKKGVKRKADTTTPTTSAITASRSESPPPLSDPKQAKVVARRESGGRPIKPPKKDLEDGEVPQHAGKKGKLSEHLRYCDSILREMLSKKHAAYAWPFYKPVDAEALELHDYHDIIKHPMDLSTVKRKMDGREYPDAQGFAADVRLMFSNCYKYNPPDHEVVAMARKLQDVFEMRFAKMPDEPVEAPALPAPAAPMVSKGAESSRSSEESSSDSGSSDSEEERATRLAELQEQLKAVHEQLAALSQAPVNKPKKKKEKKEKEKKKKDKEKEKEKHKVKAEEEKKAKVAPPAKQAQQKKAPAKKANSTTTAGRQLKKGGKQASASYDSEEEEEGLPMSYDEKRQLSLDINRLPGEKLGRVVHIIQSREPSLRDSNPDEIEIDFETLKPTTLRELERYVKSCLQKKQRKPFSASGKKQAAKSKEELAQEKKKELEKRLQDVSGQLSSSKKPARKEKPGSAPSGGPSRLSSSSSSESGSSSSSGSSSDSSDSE", "T1 sequence (Q96SW2 whole entry partner)": "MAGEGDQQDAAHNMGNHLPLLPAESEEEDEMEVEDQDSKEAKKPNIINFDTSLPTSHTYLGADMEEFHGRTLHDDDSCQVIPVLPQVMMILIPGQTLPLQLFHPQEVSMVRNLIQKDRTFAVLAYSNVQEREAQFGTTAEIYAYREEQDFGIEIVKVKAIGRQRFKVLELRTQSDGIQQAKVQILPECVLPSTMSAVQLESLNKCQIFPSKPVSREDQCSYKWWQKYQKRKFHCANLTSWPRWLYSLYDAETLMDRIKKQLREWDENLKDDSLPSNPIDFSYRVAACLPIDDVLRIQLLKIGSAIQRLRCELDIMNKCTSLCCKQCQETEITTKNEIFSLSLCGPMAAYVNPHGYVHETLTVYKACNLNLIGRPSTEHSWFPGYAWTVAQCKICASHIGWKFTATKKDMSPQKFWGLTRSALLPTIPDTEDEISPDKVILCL", "experiment": "(§1) PROTAC activity at BRD3/CRBN in human HeLa cells assessed as induction of BRD3 degradation at 10 uM in presence of CRBN ligand based N-((2-(2,6-dioxopiperidin-3-yl)-1,3-dioxoisoindolin-4-yl)methyl)-2,3-dihydroxybenzamide incubated for 24 hrs by Combinatorial Ubiquitination Real-time PROteolysis analysis", "format": "cell-based"}, "[3]": {"biological_target": "T2, Protein cereblon/Bromodomain-containing protein 4 (Homo sapiens) (UniProt O60885+Q96SW2)", "T2 sequence (Q96SW2 whole entry, looked up, other chains not shown)": "as the sequence (Q96SW2 whole entry partner) above", "experiment": "PROTAC activity at BRD4/CRBN in human HeLa cells assessed as induction of BRD4 degradation in presence of N-((2-(2,6-dioxopiperidin-3-yl)-1,3-dioxoisoindolin-4-yl)methyl)-2,3-dihydroxybenzamide by Combinatorial Ubiquitination Real-time PROteolysis analysis", "format": "cell-based", "settings": "dose 0.1-10 µM"}, "[4]": {"biological_target": "T1, Protein cereblon/Bromodomain-containing protein 3 (Homo sapiens)", "experiment": "as §1, with “BRD2/CRBN” for “BRD3/CRBN”, “BRD2” for “BRD3”", "format": "cell-based"}, "NAMALVA [5]": {"test_system": "NAMALVA", "experiment": "Antiproliferative activity against human NAMALVA cells assessed as reduction in cell viability incubated for 72 hrs by celltiter-glo assay", "format": "functional, cell-based"}, "[6]": {"biological_target": "T3, BRD4/E3 ubiquitin-protein ligase Mdm2 (Homo sapiens) (UniProt Q00987+O60885)", "T3 sequence (Q00987 whole entry, looked up, other chains not shown)": "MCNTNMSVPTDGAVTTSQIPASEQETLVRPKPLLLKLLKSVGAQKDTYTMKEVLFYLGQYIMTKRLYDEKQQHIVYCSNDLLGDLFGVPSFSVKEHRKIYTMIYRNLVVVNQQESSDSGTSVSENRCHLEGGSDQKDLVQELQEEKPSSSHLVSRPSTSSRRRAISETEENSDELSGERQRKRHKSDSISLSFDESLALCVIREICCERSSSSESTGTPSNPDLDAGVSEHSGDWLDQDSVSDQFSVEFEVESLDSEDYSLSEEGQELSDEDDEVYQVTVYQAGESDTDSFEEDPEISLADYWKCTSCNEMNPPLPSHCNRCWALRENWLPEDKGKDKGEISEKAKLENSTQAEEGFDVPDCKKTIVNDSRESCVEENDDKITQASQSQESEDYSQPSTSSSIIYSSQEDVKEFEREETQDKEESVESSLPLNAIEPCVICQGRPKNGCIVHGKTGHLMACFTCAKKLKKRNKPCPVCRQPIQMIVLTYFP", "experiment": "PROTAC activity at MDM2/BRD4 in human HCT-116 cells assessed as downregulation of SLC19A1 level at 10 uM incubated for 24 hrs in presence of BRD4 ligand based (86)-N-(2-(2-(((4S)-6-(4-chlorophenyl)-4-(2-(ethylamino)-2-oxoethyl)-1-methyl-4H-benzo[f][1,2,4]triazolo[4,3-a][1,4]diazepin-8-yl)oxy)ethoxy)ethyl)-2,3-dihydroxybenzamid by qPCR based Combinatorial Ubiquitination Real-time PROteolysis analysis", "format": "cell-based"}, "[7]": {"biological_target": "T3, BRD4/E3 ubiquitin-protein ligase Mdm2 (Homo sapiens)", "experiment": "PROTAC activity at MDM2/BRD4 in human HCT-116 cells assessed as downregulation of SLC19A1 level at 10 uM incubated for 24 hrs by qPCR analysis", "format": "cell-based"}, "[8]": {"biological_target": "T3, BRD4/E3 ubiquitin-protein ligase Mdm2 (Homo sapiens)", "experiment": "(§2) PROTAC activity at MDM2/BRD4 in human HCT-116 cells assessed as activation of caspase 3/7 incubated for 6 hrs in presence of BRD4 ligand based (86)-N-(2-(2-(((4S)-6-(4-chlorophenyl)-4-(2-(ethylamino)-2-oxoethyl)-1-methyl-4H-benzo[f][1,2,4]triazolo[4,3-a][1,4]diazepin-8-yl)oxy)ethoxy)ethyl)-2,3-dihydroxybenzamide by Combinatorial Ubiquitination Real-time PROteolysis analysis", "format": "cell-based"}, "[9]": {"biological_target": "T3, BRD4/E3 ubiquitin-protein ligase Mdm2 (Homo sapiens)", "experiment": "as §2, with “induction” for “activation”, “BRD4 degradation” for “caspase 3/7”", "format": "cell-based"}, "NAMALVA [10]": {"test_system": "NAMALVA", "experiment": "Antiproliferative activity against human NAMALVA cells assessed as reduction in cell viability incubated for 72 hrs in presence of BRD4 ligand based (86)-N-(2-(2-(((4S)-6-(4-chlorophenyl)-4-(2-(ethylamino)-2-oxoethyl)-1-methyl-4H-benzo[f][1,2,4]triazolo[4,3-a][1,4]diazepin-8-yl)oxy)ethoxy)ethyl)-2,3-dihydroxybenzamide by celltiter-glo assay", "format": "functional"}, "[11]": {"biological_target": "T3, BRD4/E3 ubiquitin-protein ligase Mdm2 (Homo sapiens)", "experiment": "PROTAC activity at MDM2/BRD4 in human HCT-116 cells assessed as induction of BRD4 degradation incubated for 6 hrs", "format": "cell-based"}, "[12]": {"biological_target": "T1, Protein cereblon/Bromodomain-containing protein 3 (Homo sapiens)", "experiment": "PROTAC activity at BRD3/CRBN in human HeLa cells assessed as induction of BRD3 degradation at 10 uM in presence of BRD3 ligand based (3-((4-((4S)-4-(2-(ethylamino)-2-oxoethyl)-8-methoxy-1-methyl4Hbenzo[f][1,2,4]triazolo[4,3-a][1,4]diazepin-6-yl)phenyl)thio)phenyl)boronic acid incubated for 24 hrs by Combinatorial Ubiquitination Real-time PROteolysis analysis", "format": "cell-based"}, "BRD2/CRBN (Homo sapiens)": {"test_system": "BRD2/CRBN (Homo sapiens)", "experiment": "PROTAC activity at BRD2/CRBN in human HeLa cells assessed as induction of BRD2 degradation at 10 uM in presence of BRD3 ligand based (3-((4-((4S)-4-(2-(ethylamino)-2-oxoethyl)-8-methoxy-1-methyl4Hbenzo[f][1,2,4]triazolo[4,3-a][1,4]diazepin-6-yl)phenyl)thio)phenyl)boronic acid incubated for 24 hrs …"}, "[13]": {"biological_target": "T2, Protein cereblon/Bromodomain-containing protein 4 (Homo sapiens)", "experiment": "PROTAC activity at BRD4/CRBN in human HeLa cells assessed as induction of BRD4 degradation at 10 uM incubated for 24 hrs in presence of BRD4 based ligand (3-((4S)-6-(4-chlorophenyl)-4-(2-(ethylamino)-2-oxoethyl)-1-methyl4H-benzo[f][1,2,4]triazolo[4,3-a][1,4]diazepin-8-yl)phenyl)boronic acid by Combinatorial Ubiquitination Real-time PROteolysis analysis", "format": "cell-based"}, "[14]": {"biological_target": "T2, Protein cereblon/Bromodomain-containing protein 4 (Homo sapiens)", "experiment": "PROTAC activity at BRD4/CRBN in human HeLa cells assessed as induction of BRD4 degradation at 10 uM incubated for 24 hrs in presence of JQ1 by Western blot analysis", "format": "cell-based"}, "[15]": {"biological_target": "T3, BRD4/E3 ubiquitin-protein ligase Mdm2 (Homo sapiens)", "experiment": "(§3) PROTAC activity at MDM2/BRD4 in human HCT-116 cells assessed as induction of BRD4 degradation incubated for 6 hrs in presence of MDM2 ligand based (4-((2-(4-((4S,5R)-4,5-bis(4-chlorophenyl)-2-(2-isopropoxy-4-methoxyphenyl)-4,5-dihydro-1H-imidazole-1-carbonyl)-2-oxopiperazin-1-yl)ethyl)carbamoyl)phenyl)boronic acid by Combinatorial Ubiquitination Real-time PROteolysis analysis", "format": "cell-based"}, "[16]": {"biological_target": "T3, BRD4/E3 ubiquitin-protein ligase Mdm2 (Homo sapiens)", "experiment": "PROTAC activity at MDM2/BRD4 in human HCT-116 cells assessed as downregulation of SLC19A1 level at 10 uM incubated for 24 hrs in presence of MDM2 ligand based (4-((2-(4-((4S,5R)-4,5-bis(4-chlorophenyl)-2-(2-isopropoxy-4-methoxyphenyl)-4,5-dihydro-1H-imidazole-1-carbonyl)-2-oxopiperazin-1-yl)ethyl)carbamoyl)phenyl)boronic acid by qPCR based Combinatorial Ubiquitination Real-time PROteolysis analysis", "format": "cell-based"}, "NAMALVA [17]": {"test_system": "NAMALVA", "experiment": "Antiproliferative activity against human NAMALVA cells assessed as reduction in cell viability incubated for 72 hrs in presence of MDM2 ligand based (4-((2-(4-((4S,5R)-4,5-bis(4-chlorophenyl)-2-(2-isopropoxy-4-methoxyphenyl)-4,5-dihydro-1H-imidazole-1-carbonyl)-2-oxopiperazin-1-yl)ethyl)carbamoyl)phenyl)boronic acid by celltiter-glo assay", "format": "functional"}, "[18]": {"biological_target": "T3, BRD4/E3 ubiquitin-protein ligase Mdm2 (Homo sapiens)", "experiment": "as §3, with “activation” for “induction”, “caspase3/7” for “BRD4 degradation”", "format": "cell-based"}, "[19]": {"biological_target": "T2, Protein cereblon/Bromodomain-containing protein 4 (Homo sapiens)", "experiment": "PROTAC activity at BRD4/CRBN in human HeLa cells assessed as induction of BRD4 degradation at 0.1 to 10 uM in presence of N-((2-(2,6-dioxopiperidin-3-yl)-1,3-dioxoisoindolin-4-yl)methyl)-2,3-dihydroxybenzamide by Combinatorial Ubiquitination Real-time PROteolysis analysis", "format": "cell-based", "settings": "dose 0.1-10 µM"}, "[20]": {"biological_target": "T2, Protein cereblon/Bromodomain-containing protein 4 (Homo sapiens)", "experiment": "PROTAC activity at BRD4/CRBN in human HeLa cells assessed as induction of BRD4 degradation at 10 uM incubated for 24 hrs in presence of CRBN based ligand N-((2-(2,6-dioxopiperidin-3-yl)-1,3-dioxoisoindolin-4-yl)methyl)-2,3-dihydroxybenzamide by Combinatorial Ubiquitination Real-time PROteolysis analysis", "format": "cell-based"}}, "note": "pIC50: −log10 of the molar value. Calls of active or inactive are those of the source. The rule behind the calls is not given here.", "data": [{"compound": "Cc1ncsc1-c1ccc(CNC(=O)[C@@H]2C[C@@H](O)CN2C(=O)[C@@H](NC(=O)c2ccc(O)c(O)c2)C(C)(C)C)cc1", "values": [{"measurement": "Activity", "setting": "[1]", "value": "inactive"}]}, {"compound": "CCNC(=O)C[C@@H]1N=C(c2ccc(Sc3cccc(B(O)O)c3)cc2)c2cc(OC)ccc2-n2c(C)nnc21", "values": [{"measurement": "Activity", "setting": "[2]", "value": "Active"}, {"measurement": "Activity", "setting": "[3]", "value": "Dose-Dependent Effect"}, {"measurement": "Activity", "setting": "[4]", "value": "Active"}]}, {"compound": "CCNC(=O)C[C@@H]1N=C(c2ccc(Cl)cc2)c2cc(OCCOCCNC(=O)c3cccc(O)c3O)ccc2-n2c(C)nnc21", "values": [{"measurement": "pIC50", "setting": "NAMALVA [5]", "value": 4.29}, {"measurement": "Activity", "setting": "[6]", "value": "Active"}, {"measurement": "Activity", "setting": "[7]", "value": "inactive"}, {"measurement": "Activity", "setting": "[8]", "value": "Active"}, {"measurement": "Activity", "setting": "[9]", "value": "Active"}, {"measurement": "pIC50", "setting": "NAMALVA [10]", "value": 6.14}, {"measurement": "Activity", "setting": "[11]", "value": "inactive"}]}, {"compound": "O=C1CCC(N2C(=O)c3cccc(CNC(=O)c4cccc(O)c4O)c3C2=O)C(=O)N1", "note": "(configuration not stated)", "values": [{"measurement": "Activity", "setting": "[12]", "value": "Active"}, {"measurement": "Activity", "setting": "BRD2/CRBN (Homo sapiens)", "value": "Active"}, {"measurement": "Activity", "setting": "[13]", "value": "Active"}, {"measurement": "Activity", "setting": "[14]", "value": "inactive"}]}, {"compound": "COc1ccc(C2=N[C@H](c3ccc(Cl)cc3)[C@@H](c3ccc(Cl)cc3)N2C(=O)N2CCN(CCNC(=O)c3ccc(B(O)O)cc3)C(=O)C2)c(OC(C)C)c1", "values": [{"measurement": "Activity", "setting": "[15]", "value": "Active"}, {"measurement": "Activity", "setting": "[16]", "value": "Active"}, {"measurement": "pIC50", "setting": "NAMALVA [17]", "value": 6.14}, {"measurement": "Activity", "setting": "[18]", "value": "Active"}]}, {"compound": "CCNC(=O)C[C@@H]1N=C(c2ccc(Sc3ccccc3)cc2)c2cc(OC)ccc2-n2c(C)nnc21", "values": [{"measurement": "Activity", "setting": "[19]", "value": "inactive"}]}, {"compound": "CCNC(=O)C[C@@H]1N=C(c2ccc(Cl)cc2)c2cc(-c3cccc(B(O)O)c3)ccc2-n2c(C)nnc21", "values": [{"measurement": "Activity", "setting": "[20]", "value": "Active"}, {"measurement": "Activity", "setting": "[14]", "value": "inactive"}]}]}
